Results: the supplement of paper PMC10307832

How the values were obtained:
Assay in all cases: relative viability (nuclei count vs DMSO), 5 days (fraction); higher = more cells survive
[1] = test system: LK-2
Outline: (§1)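 Each reported value is a median over duplicate plates. It expresses relative viability: treated-well nuclei count divided by vehicle-well nuclei count. Lung cancer cell lines in 1536-well plates were dosed by pin tool a day after seeding, alone with one drug or with a fixed anchor-drug dose plus five library-drug doses (not always all listed) in √10 steps, and nuclei were counted after 5 days.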

[2] = test system: PC-3 [JPC-3]
Outline: as §1

[3] = test system: NCI-H1666
Outline: as §1

[4] = test system: NCI-H1792
Outline: as §1

[5] = test system: H3255
Outline: as §1

[6] = test system: NCI-H596
Outline: as §1

[7] = test system: COR-L 105
Outline: as §1

[8] = test system: LOU-NH91
Outline: as §1

[9] = test system: NCI-H23
Outline: as §1

[10] = test system: HCC-366
Outline: as §1

[11] = test system: NCI-H2170
Outline: as §1

[12] = test system: A-427
Outline: as §1

[13] = test system: NCI-H1944
Outline: as §1

[14] = test system: EMC-BAC-2
Outline: as §1

[15] = test system: NCI-H520
Outline: as §1

[16] = test system: NCI-H1975
Outline: as §1

[17] = test system: NCI-H1734
Outline: as §1

[18] = test system: SK-MES-1
Outline: as §1

[19] = test system: EKVX
Outline: as §1

[20] = test system: NCI-H441
Outline: as §1

[21] = test system: ChaGo-K-1
Outline: as §1

[22] = test system: SW 900
Outline: as §1

[23] = test system: NCI-H1755
Outline: as §1

Clc1ccc(Nc2nnc(Cc3ccncc3)c3ccccc23)cc1 [Vatalanib] + O=C(c1cc(Cc2n[nH]c(=O)c3ccccc23)ccc1F)N1CCN(C(=O)C2CC2)CC1 [Olaparib] (partner 8 µM)
relative viability ([1]; first compound 0.04 µM): 0.723
relative viability ([1]; first compound 0.1265 µM): 0.72
relative viability ([1]; first compound 0.4 µM): 0.792
relative viability ([1]; first compound 1.265 µM): 0.702
relative viability ([1]; first compound 4 µM): 0.816
relative viability ([2]; first compound 0.04 µM): 1.15
relative viability ([2]; first compound 0.1265 µM): 1.02
relative viability ([2]; first compound 0.4 µM): 0.786
relative viability ([2]; first compound 1.265 µM): 1.04
relative viability ([2]; first compound 4 µM): 1.1
relative viability ([3]; first compound 0.04 µM): 0.72
relative viability ([3]; first compound 0.1265 µM): 0.832
relative viability ([3]; first compound 0.4 µM): 0.804
relative viability ([3]; first compound 1.265 µM): 0.798
relative viability ([3]; first compound 4 µM): 0.752
relative viability ([4]; first compound 0.04 µM): 0.52
relative viability ([4]; first compound 0.1265 µM): 0.384
relative viability ([4]; first compound 0.4 µM): 0.399
relative viability ([4]; first compound 1.265 µM): 0.344
relative viability ([4]; first compound 4 µM): 0.413
relative viability ([5]; first compound 0.04 µM): 0.555
relative viability ([5]; first compound 0.1265 µM): 0.579
relative viability ([5]; first compound 0.4 µM): 0.596
relative viability ([5]; first compound 1.265 µM): 0.576
relative viability ([5]; first compound 4 µM): 0.543
relative viability ([6]; first compound 0.04 µM): 0.751
relative viability ([6]; first compound 0.1265 µM): 0.741
relative viability ([6]; first compound 0.4 µM): 0.63
relative viability ([6]; first compound 1.265 µM): 0.652
relative viability ([6]; first compound 4 µM): 0.765
relative viability ([7]; first compound 0.04 µM): 0.719
relative viability ([7]; first compound 0.1265 µM): 0.762
relative viability ([7]; first compound 0.4 µM): 0.738
relative viability ([7]; first compound 1.265 µM): 0.645
relative viability ([7]; first compound 4 µM): 0.703
relative viability ([8]; first compound 0.04 µM): 0.912
relative viability ([8]; first compound 0.1265 µM): 0.886
relative viability ([8]; first compound 0.4 µM): 0.793
relative viability ([8]; first compound 1.265 µM): 0.881
relative viability ([8]; first compound 4 µM): 0.875
relative viability ([9]; first compound 0.04 µM): 0.306
relative viability ([9]; first compound 0.1265 µM): 0.161
relative viability ([9]; first compound 0.4 µM): 0.326
relative viability ([9]; first compound 1.265 µM): 0.305
relative viability ([9]; first compound 4 µM): 0.28
relative viability ([10]; first compound 0.04 µM): 0.337
relative viability ([10]; first compound 0.1265 µM): 0.34
relative viability ([10]; first compound 0.4 µM): 0.416
relative viability ([10]; first compound 1.265 µM): 0.334
relative viability ([10]; first compound 4 µM): 0.303
relative viability ([11]; first compound 0.04 µM): 0.623
relative viability ([11]; first compound 0.1265 µM): 0.656
relative viability ([11]; first compound 0.4 µM): 0.702
relative viability ([11]; first compound 1.265 µM): 0.512
relative viability ([11]; first compound 4 µM): 0.556
relative viability ([12]; first compound 0.04 µM): 0.664
relative viability ([12]; first compound 0.1265 µM): 0.729
relative viability ([12]; first compound 0.4 µM): 0.768
relative viability ([12]; first compound 4 µM): 0.666
relative viability ([13]; first compound 0.04 µM): 0.408
relative viability ([13]; first compound 0.1265 µM): 0.403
relative viability ([13]; first compound 0.4 µM): 0.417
relative viability ([13]; first compound 1.265 µM): 0.392
relative viability ([13]; first compound 4 µM): 0.384
relative viability ([14]; first compound 0.04 µM): 0.476
relative viability ([14]; first compound 0.1265 µM): 0.476
relative viability ([14]; first compound 0.4 µM): 0.497
relative viability ([14]; first compound 4 µM): 0.492
relative viability ([15]; first compound 0.04 µM): 0.392
relative viability ([15]; first compound 0.1265 µM): 0.361
relative viability ([15]; first compound 0.4 µM): 0.37
relative viability ([15]; first compound 1.265 µM): 0.283
relative viability ([15]; first compound 4 µM): 0.34
relative viability ([16]; first compound 0.04 µM): 0.84
relative viability ([16]; first compound 0.1265 µM): 0.727
relative viability ([16]; first compound 0.4 µM): 0.729
relative viability ([16]; first compound 1.265 µM): 0.709
relative viability ([16]; first compound 4 µM): 0.695
relative viability ([17]; first compound 0.04 µM): 0.64
relative viability ([17]; first compound 0.1265 µM): 0.582
relative viability ([17]; first compound 0.4 µM): 0.621
relative viability ([17]; first compound 1.265 µM): 0.609
relative viability ([17]; first compound 4 µM): 0.617
relative viability ([18]; first compound 0.04 µM): 0.608
relative viability ([18]; first compound 0.1265 µM): 0.71
relative viability ([18]; first compound 0.4 µM): 0.821
relative viability ([18]; first compound 1.265 µM): 0.61
relative viability ([18]; first compound 4 µM): 0.627
relative viability ([19]; first compound 0.04 µM): 0.955
relative viability ([19]; first compound 0.1265 µM): 0.885
relative viability ([19]; first compound 0.4 µM): 0.851
relative viability ([19]; first compound 1.265 µM): 0.66
relative viability ([19]; first compound 4 µM): 0.756
relative viability ([20]; first compound 0.04 µM): 0.546
relative viability ([20]; first compound 0.1265 µM): 0.62
relative viability ([20]; first compound 0.4 µM): 0.51
relative viability ([20]; first compound 1.265 µM): 0.561
relative viability ([20]; first compound 4 µM): 0.553
relative viability ([21]; first compound 0.04 µM): 0.412
relative viability ([21]; first compound 0.1265 µM): 0.457
relative viability ([21]; first compound 0.4 µM): 0.466
relative viability ([21]; first compound 1.265 µM): 0.42
relative viability ([21]; first compound 4 µM): 0.433
relative viability ([22]; first compound 0.04 µM): 0.759
relative viability ([22]; first compound 0.1265 µM): 0.674
relative viability ([22]; first compound 0.4 µM): 0.997
relative viability ([22]; first compound 1.265 µM): 0.853
relative viability ([22]; first compound 4 µM): 0.93
relative viability ([23]; first compound 0.04 µM): 0.773
relative viability ([23]; first compound 0.1265 µM): 0.847
relative viability ([23]; first compound 0.4 µM): 0.878
relative viability ([23]; first compound 1.265 µM): 0.901
relative viability ([23]; first compound 4 µM): 0.838
